Measurements as given in the supplement of paper PMC10307832.

What was measured:
Assay in all cases: relative viability (nuclei count vs DMSO), 5 days (fraction); higher = more cells survive
SK-LU-1 = tested on: SK-LU-1
Summary of the method: (§1)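 Lung cancer cell lines in 1536-well plates got either a single drug or a fixed anchor-drug dose together with five library-drug doses (not always all listed) in √10 steps, by pin tool, on the day after seeding. Nuclei were counted after 5 days, and relative viability is the treated-to-vehicle ratio of nuclei counts. Values are medians of duplicate plates.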

LK-2 = tested on: LK-2
Summary of the method: as §1

RERF-LC-KJ = tested on: RERF-LC-KJ
Summary of the method: as §1

UMC-11 = tested on: UMC-11
Summary of the method: as §1

HCC-366 = tested on: HCC-366
Summary of the method: as §1

NCI-H441 = tested on: NCI-H441
Summary of the method: as §1

NCI-H1437 = tested on: NCI-H1437
Summary of the method: as §1

NCI-H1755 = tested on: NCI-H1755
Summary of the method: as §1

NCI-H3122 = tested on: NCI-H3122
Summary of the method: as §1

HOP-62 = tested on: HOP-62
Summary of the method: as §1

NCI-H1734 = tested on: NCI-H1734
Summary of the method: as §1

PC-3 [JPC-3] = tested on: PC-3 [JPC-3]
Summary of the method: as §1

COR-L23 = tested on: COR-L23
Summary of the method: as §1

NCI-H596 = tested on: NCI-H596
Summary of the method: as §1

NCI-H727 = tested on: NCI-H727
Summary of the method: as §1

NCI-H1563 = tested on: NCI-H1563
Summary of the method: as §1

CAL-12T = tested on: CAL-12T
Summary of the method: as §1

ABC-1 = tested on: ABC-1
Summary of the method: as §1

NCI-H1651 = tested on: NCI-H1651
Summary of the method: as §1

EMC-BAC-2 = tested on: EMC-BAC-2
Summary of the method: as §1

NCI-H2347 = tested on: NCI-H2347
Summary of the method: as §1

HARA = tested on: HARA
Summary of the method: as §1

Cc1cn(-c2cc(NC(=O)c3ccc(C)c(Nc4nccc(-c5cccnc5)n4)c3)cc(C(F)(F)F)c2)cn1 [Nilotinib] + C[C@]1(O)C[C@@H](c2nc(-c3ccc4ccc(-c5ccccc5)nc4c3)c3c(N)nccn32)C1 [Linsitinib] (partner 1 µM)
relative viability (SK-LU-1; first compound 0.001 µM): 0.916
relative viability (SK-LU-1; first compound 0.003162 µM): 1.25
relative viability (SK-LU-1; first compound 0.01 µM): 1.46
relative viability (SK-LU-1; first compound 0.03162 µM): 0.987
relative viability (SK-LU-1; first compound 0.1 µM): 0.9
relative viability (LK-2; first compound 0.001 µM): 0.517
relative viability (LK-2; first compound 0.003162 µM): 0.515
relative viability (LK-2; first compound 0.01 µM): 0.442
relative viability (LK-2; first compound 0.03162 µM): 0.405
relative viability (LK-2; first compound 0.1 µM): 0.487
relative viability (RERF-LC-KJ; first compound 0.001 µM): 0.882
relative viability (RERF-LC-KJ; first compound 0.003162 µM): 0.941
relative viability (RERF-LC-KJ; first compound 0.01 µM): 1.05
relative viability (RERF-LC-KJ; first compound 0.03162 µM): 0.853
relative viability (RERF-LC-KJ; first compound 0.1 µM): 0.917
relative viability (UMC-11; first compound 0.001 µM): 1
relative viability (UMC-11; first compound 0.003162 µM): 1.26
relative viability (UMC-11; first compound 0.01 µM): 1.27
relative viability (UMC-11; first compound 0.1 µM): 1.13
relative viability (HCC-366; first compound 0.001 µM): 0.577
relative viability (HCC-366; first compound 0.003162 µM): 1.33
relative viability (HCC-366; first compound 0.01 µM): 0.857
relative viability (HCC-366; first compound 0.03162 µM): 0.64
relative viability (HCC-366; first compound 0.1 µM): 0.472
relative viability (NCI-H441; first compound 0.001 µM): 0.503
relative viability (NCI-H441; first compound 0.003162 µM): 0.588
relative viability (NCI-H441; first compound 0.01 µM): 0.482
relative viability (NCI-H441; first compound 0.1 µM): 0.512
relative viability (NCI-H1437; first compound 0.001 µM): 0.879
relative viability (NCI-H1437; first compound 0.003162 µM): 1.19
relative viability (NCI-H1437; first compound 0.01 µM): 1.24
relative viability (NCI-H1437; first compound 0.03162 µM): 0.747
relative viability (NCI-H1437; first compound 0.1 µM): 0.755
relative viability (NCI-H1755; first compound 0.001 µM): 1.02
relative viability (NCI-H1755; first compound 0.003162 µM): 1.15
relative viability (NCI-H1755; first compound 0.01 µM): 1.12
relative viability (NCI-H1755; first compound 0.03162 µM): 1.07
relative viability (NCI-H1755; first compound 0.1 µM): 0.894
relative viability (NCI-H3122; first compound 0.001 µM): 1.16
relative viability (NCI-H3122; first compound 0.003162 µM): 1.11
relative viability (NCI-H3122; first compound 0.01 µM): 1.16
relative viability (NCI-H3122; first compound 0.03162 µM): 0.894
relative viability (NCI-H3122; first compound 0.1 µM): 0.833
relative viability (HOP-62; first compound 0.001 µM): 0.694
relative viability (HOP-62; first compound 0.003162 µM): 0.853
relative viability (HOP-62; first compound 0.01 µM): 0.863
relative viability (HOP-62; first compound 0.03162 µM): 0.715
relative viability (HOP-62; first compound 0.1 µM): 0.744
relative viability (NCI-H1734; first compound 0.001 µM): 0.882
relative viability (NCI-H1734; first compound 0.003162 µM): 0.977
relative viability (NCI-H1734; first compound 0.01 µM): 0.972
relative viability (NCI-H1734; first compound 0.03162 µM): 0.669
relative viability (NCI-H1734; first compound 0.1 µM): 0.561
relative viability (PC-3 [JPC-3]; first compound 0.001 µM): 0.997
relative viability (PC-3 [JPC-3]; first compound 0.003162 µM): 1.1
relative viability (PC-3 [JPC-3]; first compound 0.01 µM): 1.09
relative viability (PC-3 [JPC-3]; first compound 0.03162 µM): 1.01
relative viability (PC-3 [JPC-3]; first compound 0.1 µM): 0.927
relative viability (COR-L23; first compound 0.001 µM): 0.777
relative viability (COR-L23; first compound 0.003162 µM): 1.18
relative viability (COR-L23; first compound 0.01 µM): 1.24
relative viability (COR-L23; first compound 0.03162 µM): 0.781
relative viability (COR-L23; first compound 0.1 µM): 0.903
relative viability (NCI-H596; first compound 0.003162 µM): 1.26
relative viability (NCI-H596; first compound 0.01 µM): 1.28
relative viability (NCI-H596; first compound 0.03162 µM): 0.812
relative viability (NCI-H727; first compound 0.001 µM): 0.225
relative viability (NCI-H727; first compound 0.01 µM): 0.368
relative viability (NCI-H727; first compound 0.03162 µM): 0.275
relative viability (NCI-H727; first compound 0.1 µM): 0.263
relative viability (NCI-H1563; first compound 0.001 µM): 1.13
relative viability (NCI-H1563; first compound 0.003162 µM): 1.17
relative viability (NCI-H1563; first compound 0.01 µM): 1.17
relative viability (NCI-H1563; first compound 0.03162 µM): 1.15
relative viability (CAL-12T; first compound 0.001 µM): 0.75
relative viability (CAL-12T; first compound 0.003162 µM): 0.771
relative viability (CAL-12T; first compound 0.01 µM): 0.946
relative viability (CAL-12T; first compound 0.03162 µM): 0.714
relative viability (CAL-12T; first compound 0.1 µM): 0.565
relative viability (ABC-1; first compound 0.001 µM): 0.985
relative viability (ABC-1; first compound 0.003162 µM): 0.862
relative viability (ABC-1; first compound 0.01 µM): 0.724
relative viability (ABC-1; first compound 0.03162 µM): 0.683
relative viability (ABC-1; first compound 0.1 µM): 0.554
relative viability (NCI-H1651; first compound 0.001 µM): 1.08
relative viability (NCI-H1651; first compound 0.003162 µM): 1.42
relative viability (NCI-H1651; first compound 0.01 µM): 1.32
relative viability (NCI-H1651; first compound 0.03162 µM): 0.879
relative viability (NCI-H1651; first compound 0.1 µM): 1.06
relative viability (EMC-BAC-2; first compound 0.001 µM): 0.812
relative viability (EMC-BAC-2; first compound 0.003162 µM): 0.954
relative viability (EMC-BAC-2; first compound 0.01 µM): 1.1
relative viability (EMC-BAC-2; first compound 0.03162 µM): 0.66
relative viability (EMC-BAC-2; first compound 0.1 µM): 0.839
relative viability (NCI-H2347; first compound 0.001 µM): 1.01
relative viability (NCI-H2347; first compound 0.003162 µM): 1.11
relative viability (NCI-H2347; first compound 0.01 µM): 1.1
relative viability (NCI-H2347; first compound 0.03162 µM): 0.903
relative viability (NCI-H2347; first compound 0.1 µM): 0.909
relative viability (HARA; first compound 0.001 µM): 0.987
relative viability (HARA; first compound 0.003162 µM): 1.37
relative viability (HARA; first compound 0.01 µM): 1.3
relative viability (HARA; first compound 0.03162 µM): 0.742
relative viability (HARA; first compound 0.1 µM): 0.93
